# Experiments:
# [1] = Paclitaxel release from coated stent or plate into phosphate buffer pH 7.4 with 0.3% SDS, HPLC; type: physicochemical; conditions: stents/plates coated with polypyrrole derivatives
# Experimental: The release characteristic of the stent or plate was determined by placing drug-loaded device into buffer phosphate solution, pH 7.4, which contained 0.3% SDS, to increase the solubility of paclitaxel, and the daily release was determined by HPLC.
# [2] = Paclitaxel release from pyrrole-functionalized PLA nanoparticles in 0.1N phosphate buffer; type: physicochemical; conditions: immersed in 0.1N phosphate buffer solution
# Experimental: In a representative example, nanoparticles were prepared by dispersing a chloroform solution of a pyrrole polymer prepared as described hereinabove (0.1 gram), polylactic acid (0.4 grams, Mn=3,000) and paclitaxel (0.15 gram) in de-ionized water at room temperature with constant stirring.
structure (smiles),measurement,setting,value
CC(=O)O[C@H]1C(=O)[C@@]2(C)[C@H]([C@H](OC(=O)c3ccccc3)[C@]3(O)C[C@H](OC(=O)[C@H](O)[C@@H](NC(=O)c4ccccc4)c4ccccc4)C(C)=C1C3(C)C)[C@]1(OC(C)=O)CO[C@@H]1C[C@@H]2O [paclitaxel],absorbed drug released into the buffer medium,[1]; after 3 days,about 50%
same,duration of slow release of the remaining drug,[1],over 3 weeks
same,release of paclitaxel from nanoparticles,[2],released constantly from these particles during two weeks

# Source: patent US20090232867A1, “Modified conductive surfaces having active substances attached thereto” (Elutex Ltd., priority 2004, published 2009)
